Results taken from patent US6794406B2, “Indole derivatives” (Bayer Aktiengesellschaft, priority 2000, dated 2004).

test system: luciferase gene under the control of a thyroid hormone-regulated promoter (TRE) in HepG2 hepatocarcinoma cell; assay: T3 promoter assay cell test; format: cell-based; conditions: stably transfected human HepG2 cells; luciferase induction; incubated 48 or 72 hours with costimulator retinolic acid; four replicates
Experimental: The efficacy of the compounds according to the invention can be tested, for example, in vitro by the T3 promoter assay cell test described below:
The test is carried out using a stably transfected, human HepG2 hepatocarcinoma cell which expresses a luciferase gene under the control of a thyroid hormone-regulated promoter. The vector used for the transfection carries, ahead of the luciferase gene, a minimal thymidine kinase promoter having a thyroid hormone-responsive element (TRE), which consists of two inverted palindromes of 12 Bp each and an 8 Bp spacer.
For the test, the cell cultures are inoculated into 96 well plates in Eagle's Minimal Essential Medium with the following additives: glutamine, tricine [N-(tris(hydroxymethyl)methyl)glycine], sodium pyruvate, non-essential amino acids (L-Ala, L-Asn, L-Asp, L-Pro, L-Ser, L-Glu, Gly), insulin, selenium and transferrin. The cultures are grown for 48 hours at 37° C. and under a 10% CO2 atmosphere. Serial dilutions of test substance or reference compound (T3, T4) and costimulator retinolic acid are then added to the test cultures and these are incubated as beforehand for a further 48 or 72 hours. Each substance concentration is tested in four replicates. For the determination of the luciferase induced by T3 or other substances, the cells are then lysed by addition of a Triton- and luciferin-containing buffer (from Promega) and immediately measured luminometrically. The EC50 values of each compound are calculated.

EC50 [nM] | Compound
22 | Cc1cc(NCC(=O)O)cc(C)c1Oc1ccc2[nH]cc(C(C)C)c2c1 [Example 5, N-{4-[(3-Isopropyl-1H-indol-5-yl)oxy]-3,5-dimethylphenyl}glycine]
8 | Cc1cc(NC(=O)CC(=O)O)cc(Cl)c1Oc1ccc2[nH]cc(C(C)C)c2c1 [Example 6, 3-({3-Chloro-4-[(3-isopropyl-1H-indol-5-yl)oxy]-5-methylphenyl}amino)-3-oxo-propionic acid]
0.5 | CC(C)c1c[nH]c2ccc(Oc3c(C(F)(F)F)cc(CC(=O)O)cc3C(F)(F)F)cc12 [Example 11, 4-(3-Isopropyl-1H-indol-5-yloxy)-3,5-bis-trifluoromethylphenylacetic acid]
4 | CC(C)c1c[nH]c2ccc(Oc3c(C(F)(F)F)cc(CCC(=O)O)cc3C(F)(F)F)cc12 [Example 15, 4-(3-Isopropyl-1H-indol-5-yloxy)-3,5-bis-trifluoromethylphenylpropionic acid]
21 | Cc1cc(OCC(=O)O)cc(C)c1Oc1ccc2[nH]cc(C(C)C)c2c1 [Example 16, {4-[(3-Isopropyl-1H-indol-5-yl)oxy]-3,5-dimethylphenoxy}acetic acid]
